Measurements as given in US20230117034A1, “PYRAZOLOTRIAZINES” (Bayer Aktiengesellschaft, priority 2019, published 2023).

Tests used:
[1] = test system: BRCA1 mRNA expression in MDA-MB-231 cells; experiment: qRT-PCR assay: BRCA1 mRNA expression in MDA-MB-231; format: cell-based, human; conditions: Homo sapiens, MDA-MB-231, Inhibition of BRCA1 mRNA expression in MDA-MB-231 cells; median; read-out: RTqPCR-MDA-MB-231, IC50, BRCA1 (median)
How it was run: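 Read-out is RT-qPCR with expression normalised to the GAPDH housekeeping gene. Before RNA isolation, plated cells (200,000 per well, 24 h attachment) received test substances continuously over 24 h, and 600 ng of RNA served as cDNA template.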

[2] = test system: CAL-120, human breast adenocarcinoma cells; experiment: Proliferation assay CAL-120 (crystal violet, 4 days); format: cell-based; conditions: Homo sapiens, CAL-120, 96 h, CAL-120 cells, median, read-out: Prolif-CAL-120, IC50-[mol/l] (median)
How it was run: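 Plated 4,000 cells/well, 10% FCS; 24 h later treated 0.01-10 µmol/L cpd (DMSO 0.1%), 4 d. Fix glutaraldehyde, stain 0.1% crystal violet pH 3.0, elute acetic acid, A595. Normalized to t0 plate/untreated; 4-param IC50.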

[3] = target: T1, CDK12 (nuclear staining in CAL-120 cells) (Homo sapiens, UniProt Q9NYV4); experiment: CDK12 nuclear protein level: immunofluorescence/high content analysis (CAL-120); format: cell-based; conditions: for DC50: CAL-120 cells, 24 h, immunofluorescence, 50% reduction of nuclear CDK12 staining intensity, median, read-out: CDK12 degradation IF, DC50- [mol/l] (median); for (IC50 CDK12 high ATP) to (Degradation DC50 CDK12) ratio: ratio of IC50 CDK12 high ATP kinase assay to DC50 CDK12 degradation (IF, CAL-120)
T1 construct: endogenous in cells; host or cells: CAL-120 human breast cancer cells (DSMZ ACC 459)
How it was run: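 CAL-120 cells were treated with compound for 24 h at 37 °C, fixed with PFA and immunostained for CDK12. Nuclear CDK12 intensity was quantified by automated image analysis and normalized to DMSO and control. DC50 is the concentration giving 50% reduction of nuclear staining.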

[4] = target: T2, CYCLIN K (nuclear staining in CAL-120 cells) (Homo sapiens, UniProt O75909); experiment: CYCLIN K nuclear protein level: immunofluorescence high content analysis (CAL-120); format: cell-based; conditions: 24 h, 50% reduction of nuclear CCNK staining intensity, median, read-out: CYCLIN K degradation IF, DC50-[mol/l] (median)
T2 construct: endogenous in cells; host or cells: CAL-120 human breast cancer cells (DSMZ ACC 459)
How it was run: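 CAL-120 breast cancer cells treated in dose-response for 24 h at 37 °C, PFA-fixed and immunostained for cyclin K with Hoechst counterstain. Confocal imaging quantified nuclear intensity; DC50 is the concentration giving 50% reduction of nuclear CCNK staining, normalized to DMSO and control.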

T2 sequence (O75909 whole entry): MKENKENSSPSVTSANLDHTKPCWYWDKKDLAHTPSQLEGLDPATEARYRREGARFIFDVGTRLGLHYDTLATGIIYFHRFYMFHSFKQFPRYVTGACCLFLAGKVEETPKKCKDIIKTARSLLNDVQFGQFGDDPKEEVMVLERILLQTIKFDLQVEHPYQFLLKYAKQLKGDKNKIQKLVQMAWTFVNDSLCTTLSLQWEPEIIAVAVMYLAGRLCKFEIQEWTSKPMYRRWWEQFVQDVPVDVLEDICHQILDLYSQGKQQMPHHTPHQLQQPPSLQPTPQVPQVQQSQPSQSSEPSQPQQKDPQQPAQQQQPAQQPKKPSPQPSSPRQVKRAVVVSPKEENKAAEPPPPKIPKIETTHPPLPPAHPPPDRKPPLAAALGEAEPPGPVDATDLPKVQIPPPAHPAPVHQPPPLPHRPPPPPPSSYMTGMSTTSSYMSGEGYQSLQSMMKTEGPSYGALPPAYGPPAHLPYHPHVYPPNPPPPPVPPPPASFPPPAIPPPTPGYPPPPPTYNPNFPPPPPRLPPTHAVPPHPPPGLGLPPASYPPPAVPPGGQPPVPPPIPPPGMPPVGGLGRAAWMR
T2 sequence (Q9NYV4 whole entry partner): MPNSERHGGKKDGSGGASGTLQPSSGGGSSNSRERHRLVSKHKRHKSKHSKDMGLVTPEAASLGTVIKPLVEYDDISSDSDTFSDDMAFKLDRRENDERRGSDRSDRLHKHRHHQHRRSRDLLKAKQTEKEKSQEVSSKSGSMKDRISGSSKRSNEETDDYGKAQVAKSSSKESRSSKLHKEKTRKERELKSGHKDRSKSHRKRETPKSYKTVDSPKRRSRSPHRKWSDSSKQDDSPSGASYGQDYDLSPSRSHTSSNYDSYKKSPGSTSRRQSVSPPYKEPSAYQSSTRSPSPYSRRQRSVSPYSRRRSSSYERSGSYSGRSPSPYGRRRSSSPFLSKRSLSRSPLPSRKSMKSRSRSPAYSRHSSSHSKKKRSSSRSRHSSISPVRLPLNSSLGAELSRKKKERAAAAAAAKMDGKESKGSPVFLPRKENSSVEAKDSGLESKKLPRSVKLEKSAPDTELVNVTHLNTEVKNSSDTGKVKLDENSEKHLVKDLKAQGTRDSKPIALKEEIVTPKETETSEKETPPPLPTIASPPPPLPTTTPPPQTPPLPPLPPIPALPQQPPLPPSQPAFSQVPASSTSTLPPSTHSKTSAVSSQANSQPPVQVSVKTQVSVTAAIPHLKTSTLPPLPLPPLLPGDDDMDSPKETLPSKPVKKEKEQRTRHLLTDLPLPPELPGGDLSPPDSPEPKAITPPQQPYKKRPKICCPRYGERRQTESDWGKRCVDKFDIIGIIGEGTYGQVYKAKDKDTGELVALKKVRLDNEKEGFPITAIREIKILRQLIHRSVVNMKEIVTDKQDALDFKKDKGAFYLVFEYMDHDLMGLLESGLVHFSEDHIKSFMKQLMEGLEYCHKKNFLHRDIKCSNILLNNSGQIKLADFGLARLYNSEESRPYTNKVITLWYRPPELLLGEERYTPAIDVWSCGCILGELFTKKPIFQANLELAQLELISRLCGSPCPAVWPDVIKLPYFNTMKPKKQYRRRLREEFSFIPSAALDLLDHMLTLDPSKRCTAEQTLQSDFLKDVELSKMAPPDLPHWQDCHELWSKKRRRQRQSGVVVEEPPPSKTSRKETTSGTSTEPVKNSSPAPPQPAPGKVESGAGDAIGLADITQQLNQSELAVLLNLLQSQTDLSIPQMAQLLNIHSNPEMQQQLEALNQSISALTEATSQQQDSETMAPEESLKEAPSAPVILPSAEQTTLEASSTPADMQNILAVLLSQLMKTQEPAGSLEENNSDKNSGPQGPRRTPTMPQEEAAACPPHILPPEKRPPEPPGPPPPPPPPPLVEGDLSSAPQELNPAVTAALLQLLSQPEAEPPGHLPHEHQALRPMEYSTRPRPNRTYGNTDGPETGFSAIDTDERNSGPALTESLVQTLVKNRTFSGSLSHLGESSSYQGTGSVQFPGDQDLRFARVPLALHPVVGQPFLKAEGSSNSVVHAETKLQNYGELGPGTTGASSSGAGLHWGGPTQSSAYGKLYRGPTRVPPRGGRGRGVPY
T1 sequence (Q9NYV4 whole entry): as the sequence (Q9NYV4 whole entry partner) above
T1 sequence (O75909 whole entry partner): as the sequence (O75909 whole entry) above

| IC50 [1] [nM] | IC50 [2] [nM] | DC50 [3] [nM] | (IC50 CDK12 high ATP) to (Degradation DC50 CDK12) ratio [3] | DC50 [4] [nM] | SMILES |
| --- | --- | --- | --- | --- | --- |
| 3.42 | 3.07 | 1.19 | 1336 | 0.453 | Fc1cccc2[nH]c(CNc3nc(N4CCN5CCC4CC5)nc4c(C(F)(F)F)cnn34)nc12 [Example 410, 2-(1,4-diazabicyclo[3.2.2]nonan-4-yl)-N-[(4-fluoro-1H-benzimidazol-2-yl)methyl]-8-(trifluoromethyl)pyrazolo[1,5-a][1,3,5]triazin-4-amine] |
| 14.6 | 23.1 | 4.58 | 532 | 0.611 | Cc1cccc(-c2nnc(CNc3nc(N4CCOCC4)nc4c(Br)cnn34)[nH]2)c1 [Example 40, 8-bromo-N-{[5-(3-methylphenyl)-4H-1,2,4-triazol-3-yl]methyl}-2-(morpholin-4-yl)pyrazolo[1,5-a][1,3,5]triazin-4-amine] |
| 49 | 56.3 | 26.1 | 246 | 1.66 | CC1(C)CN(c2nc(NCc3nc4ccccc4[nH]3)n3ncc(Br)c3n2)CCO1 [Example 58, N-[(1H-benzimidazol-2-yl)methyl]-8-bromo-2-(2,2-dimethylmorpholin-4-yl)pyrazolo[1,5-a][1,3,5]triazin-4-amine] |
| 10.6 | 13.1 | 4.32 | 626 | 0.441 | CCc1cnn2c(NCc3nc4c(OC)cccc4[nH]3)nc(N3CCOCC3)nc12 [Example 433, 8-ethyl-N-[(4-methoxy-1H-benzimidazol-2-yl)methyl]-2-(morpholin-4-yl)pyrazolo[1,5-a][1,3,5]triazin-4-amine] |
| 77.1 | 106 | 47.2 | 43 | 9.25 | Brc1cnn2c(NCc3nnc(-c4cccnc4)[nH]3)nc(N3CCOCC3)nc12 [Example 53, 8-bromo-2-(morpholin-4-yl)-N-{[5-(pyridin-3-yl)-4H-1,2,4-triazol-3-yl]methyl}pyrazolo[1,5-a][1,3,5]triazin-4-amine] |
| 10.5 | 10.2 | 5 | >3530 | 2.06 | CCc1cnn2c(NCc3nc4ccccc4[nH]3)nc(N3CCN(C)CC3)nc12 [Example 434, N-[(1H-benzimidazol-2-yl)methyl]-8-ethyl-2-(4-methylpiperazin-1-yl)pyrazolo[1,5-a][1,3,5] triazin-4-amine] |
| 2.55 | 4.73 | 6.41 | 682 | 0.519 | Cc1cnn2c(NCc3nc4c(F)c(F)ccc4[nH]3)nc(N3CCOCC3)nc12 [Example 392, N-[(4,5-difluoro-1H-benzimidazol-2-yl)methyl]-8-methyl-2-(morpholin-4-yl)pyrazolo[1,5-a][1,3,5]triazin-4-amine] |
| 1.6 | 0.927 | 2.31 | 306 | 0.643 | Fc1ccc2[nH]c(CNc3nc(N4CCN5CCC4CC5)nc4c(C(F)(F)F)cnn34)nc2c1F [Example 407, 2-(1,4-diazabicyclo[3.2.2]nonan-4-yl)-N-[(4,5-difluoro-1H-benzimidazol-2-yl)methyl]-8-(trifluoromethyl)pyrazolo[1,5-a][1,3,5]triazin-4-amine] |
